# Results taken from US9445999B2, “Process for preparing carrier particles for dry powders for inhalation” (CHIESI FARMACEUTICI S.p.A., priority 2010, dated 2016).
# Columns and labels:
# [1] = Particle size distribution (PSD) by laser diffraction with a Malvern apparatus; type: physicochemical; settings: lactose 90-150 microns + 0.5% w/w MgSt, CYCLOMIX at given speed and time; mean of three determinations
# Source text: In general terms, the particle size of the particles is quantified by measuring a characteristic equivalent sphere diameter, known as volume diameter, by laser diffraction.
# In the present application, the particle size interval is expressed in terms of […]. Otherwise, the particle size distribution is expressed in terms of: i) the volume median diameter (VMD) which corresponds to the diameter of 50 percent by weight or volume respectively, of the particles, e.g. d(v0.5); and ii) the volume diameter (VD) in microns of 10% and 90% of the particles, respectively, e.g. d(v0.1) and d(v0.9).
# iv) the particle size distribution (PSD) by laser diffraction with a Malvern apparatus; the water contact angle by the sessile drop method wherein the powder is in the form of a disc obtained by compaction (compressed powder disc method) according to the procedure reported above in the description;
# The results are expresses as mean of three determinations. In Table 2, the water contact angle values and the corresponding extent of surface coating calculated from the Cassie and Baxter equation are also reported. Said equation was applied to the experimental values of the penultimate column of Table 2 using the reference values for magnesium state alone and alpha-lactose monohydrate alone. The variability in terms of S.D. of the experimental values is always less than ±10%, typically of ±5%.
# [2] = Water contact angle by sessile drop (compressed powder disc method); extent of surface coating from the Cassie and Baxter equation; type: physicochemical; settings: 0.5% w/w MgSt carriers
# Source text: The extent to which magnesium stearate coats the surface of the lactose particles may be determined by first measuring the water contact angle, and then applying the equation known in the literature as Cassie and Baxter, cited at page 338 of Colombo I et al., Il Farmaco, 1984, 39(10), pp. 328-341, which is incorporated herein by reference in its entirety, and reported below. cos θmixture=fMgSt cos θMgst+flactore cos θlactose where
# fMgst and flactore are the surface area fractions of magnesium stearate and of lactose;
# θMgSt is the water contact angle of magnesium stearate;
# θlactose is the water contact angle of lactose; and
# θmixture are the experimental contact angle values. […]
# If a fully automated procedure is not available, the base (b) and the height (h) of the drop are measured on the display using a mobile reading scale, then the water contact angles (WCA) are calculated by applying the following formula: WCA=[arctg2h/b]×2×180/[…]
# Typically the values are calculated as a mean of three different measurements taken at room temperature. […]
# The results are expresses as mean of three determinations. In Table 2, the water contact angle values and the corresponding extent of surface coating calculated from the Cassie and Baxter equation are also reported. […]
compound,measurement,setting,value
"O.OC[C@H]1O[C@@H](O[C@H]2[C@H](O)[C@@H](O)[C@@H](O)O[C@@H]2CO)[C@H](O)[C@@H](O)[C@H]1O [α-lactose monohydrate, alpha-lactose monohydrate]",PSD d(v0.1),[1],96.4
same,PSD d(v0.5),[1],132.2
same,PSD d(v0.9),[1],182.3
same,Water Contact Angle,"[2]; compressed powder disc, sessile drop",8.35 E
same,Extent of Surface Coating,[2]; calculated from the Cassie and Baxter equation,0%
